According to patent US12479794B2, “Acetophenone oxime compound and application thereof” (Medshine Discovery Inc., priority 2020, dated 2025):
Structures can show the parent of a compound that is named as a salt. Where two headings read alike, the source gives them in different places. One block for each compound: values may come before it.

Key:
[1] = Pharmacokinetic evaluation in SD rats (iv and oral); assay type: in vivo, Sprague Dawley rats; details: male, Sprague-Dawley, rat, plasma; for half-life: read-out: Half life T1/2 (PO) (converted); for bioavailability: read-out: Bioavailability F; for clearance: read-out: Clearance rate CL; for Vd: read-out: Distribution in tissue Vdss; for Cmax: read-out: Peak concentration Cmax
Description: Assay Example 2: Pharmacokinetic Evaluation of Compounds in Rats
Object of the assay: To evaluate the in vivo pharmacokinetics of the compounds in SD rats
Sprague Dawley rats (male, 200-300 g, 7-9 weeks old, Shanghai SLAC)
The pharmacokinetic characteristics of the compounds in rodents after intravenous injection and oral administration were assayed according to the standard protocol. In the assay, the candidate compounds were formulated into clear solutions and administered to rats by single intravenous injection and oral administration. The vehicle for intravenous injection and oral administration was DMSO and 10% hydroxypropyl β-cyclodextrin in water (DMSO:10% hydroxypropyl β-cyclodextrin in water=5:95). Whole blood samples were collected within 48 hours, and centrifuged at 3000 g for 15 minutes. The supernatant was separated to give plasma samples. 4 times the volume of acetonitrile solution containing internal standard was added to precipitate protein. The resulting mixture was centrifuged and the supernatant was taken out. An equal volume of water was added and the mixture was centrifuged. The supernatant was taken out, and injected as a sample to quantitatively analyze the plasma drug concentration by LC-MS/MS analysis method. The pharmacokinetic parameters, such as peak concentration, time to peak, clearance rate, half-life, area under drug-time curve, bioavailability, etc., were calculated.

S1P1 = molecular target: T1, S1P1 (Homo sapiens, UniProt P21453); test: In vitro agonistic activity on S1P1, U2OS-EDG1 cells, LiveBLAzer FRET B/G; assay type: cell-based; details: for Emax: % Effect
T1 construct: host or cells: U2OS
T1 sequence (P21453 whole entry): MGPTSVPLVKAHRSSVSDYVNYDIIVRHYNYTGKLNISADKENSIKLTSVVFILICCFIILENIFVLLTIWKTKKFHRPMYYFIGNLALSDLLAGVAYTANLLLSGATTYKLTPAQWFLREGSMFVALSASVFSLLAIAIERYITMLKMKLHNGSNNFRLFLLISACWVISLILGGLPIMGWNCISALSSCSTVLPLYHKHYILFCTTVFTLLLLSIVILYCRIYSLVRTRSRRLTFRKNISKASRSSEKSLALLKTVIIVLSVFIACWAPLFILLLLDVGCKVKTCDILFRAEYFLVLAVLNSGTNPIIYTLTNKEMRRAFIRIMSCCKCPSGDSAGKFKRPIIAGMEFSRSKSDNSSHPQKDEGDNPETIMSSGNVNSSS
Description: Assay Example 1: In Vitro Evaluation of the Agonistic Activity of the Compounds of the Present Disclosure on S1P1
Object of the assay: To detect the agonistic activity of compounds on S1P1
• 1. Cells U2OS-EDG1 (Batch No.: Invitrogen-K1520) were taken out of a liquid nitrogen tank and placed in a 37° C. water bath to thaw quickly; • 2. The cell suspension was aspirated into a 15 ml centrifuge tube, resuspended in 5 ml of preheated medium, and centrifuged at 1000 rpm for 5 min; • 3. The supernatant was discarded. The cells were resuspended in 10 ml of medium, transferred into a T75 culture flask, and cultivated in an incubator with 5% CO2 at 37° C. II. Agonist Assay • 1. The compounds were diluted to working concentrations, and serially diluted 3-fold by Echo 555 (manufacturer: Labcyte) to obtain 10 concentrations; 200 nL of each concentration of the compound was transferred to a cell plate and centrifuged at 1000 rpm for 15 seconds; • 2. Culture medium was aspirated from the culture flask; 4 mL of Dulbecco's phosphate buffer (DPBS, supplier: Coring, item No.: 21-031-CVR, batch No.: 03318006) was added, and the residual serum was washed away; 2 mL of trypsin was added; The mixture was incubated in an incubator at 37° C. for 2 min, and the cells were digested; 10 mL of seeding medium was added to resuspend the cells; 0.6 mL of cell suspension was taken out and counted; • 3. The density of cells was adjusted to 1.88E+05 cells/mL using seeding medium, with 40 μL per well (7500\well); 40 μL of FreeStyle™ Expression medium was added around the cell plate; The plate was let stand at room temperature for 15 min and incubated at 37° C. with 5% CO2 for 20 hours. III. Signal Detection • 1. LiveBLAzer™-FRET B/G Substrate (CCF4-AM) assay reagents were formulated according to the instructions; • 2. 8 μL of 6×Substrate Mixture was added to each well of the cell plate; The plate was centrifuged at 1000 rpm for 15 seconds, covered with a film, and incubated at 23° C. for 2 hours; The cell plate was subjected to Envision […] detection. IV. Data Analysis • 1. The raw data were converted into % Effect by using an equation, and the EC50 value can be obtained by curve fitting with four parameters [“log(agonist) vs. response—Variable slope” model in GraphPad Prism]; • 2. Calculation formula: Ratio=(460 nm−blank)/(535 nm−blank) % Effect=(SampleRatio−Ave LCRatio)/(Ave HCRatio−Ave LCRatio)×100%

[2] = intravenous, iv 1.0, po 2.0 mg/kg
[3] = po, 2 mg/kg, iv 1.0, po 2.0 mg/kg, PO, read-out: Area under drug-time curve AUC0-last PO

Structure (SMILES): C/C(=N\OCc1ccc(C2CCCCC2)c(C(F)(F)F)c1)c1ccc2c(c1)CCC2N(C)CCC(=O)O (stereo not drawn) [Compound 11 trifluoroacetate]
- AUC(0-t) ([1]; iv 1.2, po 2.4 mg/kg, PO, read-out: Area under drug-time curve AUC0-last PO): 11.3 µM·h
- half-life ([1]; iv 1.2, po 2.4 mg/kg, PO): 545 min
- bioavailability ([1]; iv 1.2, po 2.4 mg/kg): 64%
- clearance ([1]; iv 1.2, po 2.4 mg/kg): 4.24 mL/min/kg
- Vd ([1]; iv 1.2, po 2.4 mg/kg): 3.32 L/kg
- Cmax ([1]; iv 1.2, po 2.4 mg/kg): 605 nM
- EC50 (S1P1): 4.97 nM
- Emax (S1P1): 97.4%

Structure (SMILES): C/C(=N\OCc1ccc(OC(F)F)c(C(F)(F)F)c1)c1ccc2c(c1)CCC2N1CC(C(=O)O)C1 (stereo not drawn) [Compound 28]
- EC50 (S1P1): 23.1 nM
- Emax (S1P1): 121%

Structure (SMILES): C/C(=N\OCc1ccc(OCC2CC2)c(C(F)(F)F)c1)c1ccc2c(c1)CCC2NCC1(C(=O)O)CC1 (stereo not drawn) [Compound 14 hydrochloride]
- EC50 (S1P1): 27.4 nM
- Emax (S1P1): 113%

Structure (SMILES): C/C(=N\OCc1ccc(C2CCCCC2)c(C(F)(F)F)c1)c1ccc2c(c1)CCC2NCC1(C(=O)O)CC1 (stereo not drawn) [Compound 3 trifluoroacetate]
- AUC(0-t) ([1]; iv 1.4, po 2.7 mg/kg, PO, read-out: Area under drug-time curve AUC0-last PO): 7.05 µM·h
- half-life ([1]; iv 1.4, po 2.7 mg/kg, PO): 678 min
- bioavailability ([1]; iv 1.4, po 2.7 mg/kg): 59.3%
- clearance ([1]; iv 1.4, po 2.7 mg/kg): 6.87 mL/min/kg
- Vd ([1]; iv 1.4, po 2.7 mg/kg): 5.47 L/kg
- Cmax ([1]; iv 1.4, po 2.7 mg/kg): 393 nM
- EC50 (S1P1): 5.77 nM
- Emax (S1P1): 95%

Structure (SMILES): C/C(=N\OCc1ccc(OCC(C)C)c(C(F)(F)F)c1)c1ccc2c(c1)CCC2N(C)CCC(=O)O (stereo not drawn) [Compound 22 formate]
- EC50 (S1P1): 19.2 nM
- Emax (S1P1): 107%

Structure (SMILES): C/C(=N\OCc1ccc(OC(C)C)c(C(F)(F)F)c1)c1ccc2c(c1)CCC2NCC(=O)O (stereo not drawn) [Compound 10 hydrochloride]
- EC50 (S1P1): 57.2 nM
- Emax (S1P1): 84.2%

Structure (SMILES): C/C(=N\OCc1ccc(C2CCCCC2)c(C(F)(F)F)c1)c1ccc2c(c1)CC(NCCC(=O)O)C2 (stereo not drawn) [Compound 1 trifluoroacetate]
- EC50 (S1P1): 41.6 nM
- Emax (S1P1): 88.4%

Structure (SMILES): C/C(=N\OCc1ccc(C2CCCCC2)c(C(F)(F)F)c1)c1ccc2c(c1)CCC2N1CC(C(=O)O)C1 (stereo not drawn) [Compound 30]
- clearance [1, 2]: 3.93 mL/min/kg
- Vd [1, 2]: 4.19 L/kg
- bioavailability ([1]; iv 1.0, po 2.0 mg/kg): 62.1%
- Cmax ([1]; iv 1.0, po 2.0 mg/kg): 478 nM
- AUC(0-t) [1, 3]: 7.54 µM·h
- EC50 (S1P1): 16.5 nM
- Emax (S1P1): 63.4%

Now from value to compound:

- EC50 (S1P1): 6.88 nM
- Emax (S1P1): 101%
Structure (SMILES): C/C(=N\OCc1ccc(OC(C)C)c(C(F)(F)F)c1)c1ccc2c(c1)CCC2N(C)CCC(=O)O (stereo not drawn) [Compound 35]

- EC50 (S1P1): 8.92 nM
- Emax (S1P1): 51%
Structure (SMILES): C/C(=N\OCc1ccc(C2CCCCC2)c(C(F)(F)F)c1)c1ccc2c(c1)CCC2NCCC(=O)O (stereo not drawn) [Compound 20]

- clearance [1, 2]: 2.87 mL/min/kg
- Vd [1, 2]: 0.88 L/kg
- bioavailability ([1]; iv 1.0, po 2.0 mg/kg): 80.9%
- Cmax ([1]; iv 1.0, po 2.0 mg/kg): 1660 nM
- AUC(0-t) [1, 3]: 18.6 µM·h
- half-life ([1]; po, 2 mg/kg, iv 1.0, po 2.0 mg/kg, PO): 276 min
- EC50 (S1P1): 10.3 nM
- Emax (S1P1): 105%
Structure (SMILES): C/C(=N\OCc1ccc(OC2CCCC2)c(C(F)(F)F)c1)c1ccc2c(c1)CCC2N1CC(C(=O)O)C1 (stereo not drawn) [Compound 31]

- clearance [1, 2]: 5.43 mL/min/kg
- Vd [1, 2]: 2.05 L/kg
- bioavailability ([1]; iv 1.0, po 2.0 mg/kg): 53.2%
- Cmax ([1]; iv 1.0, po 2.0 mg/kg): 486 nM
- AUC(0-t) [1, 3]: 6.13 µM·h
- EC50 (S1P1): 12.3 nM
- Emax (S1P1): 106%
Structure (SMILES): C/C(=N\OCc1ccc(OCC2CC2)c(C(F)(F)F)c1)c1ccc2c(c1)CCC2N(C)CCC(=O)O (stereo not drawn) [Compound 21]

- EC50 (S1P1): 2.98 nM
- Emax (S1P1): 110%
Structure (SMILES): C/C(=N\OCc1ccc(OCC2CC2)c(C(F)(F)F)c1)c1ccc2c(c1)CCC2N1CC(C(=O)O)C1 (stereo not drawn) [Compound 33]

- EC50 (S1P1): 14.1 nM
- Emax (S1P1): 102%
Structure (SMILES): C/C(=N\OCc1ccc(OCC(C)C)c(C(F)(F)F)c1)c1ccc2c(c1)CCC2NCC1(C(=O)O)CC1 (stereo not drawn) [Compound 13 hydrochloride]

- half-life ([1]; intravenous, 1 mg/kg, iv 1.0 mg/kg only (head prints PO)): 450 min
- AUC(0-t) ([1]; iv, 1 mg/kg, iv 1.0 mg/kg, read-out: Area under drug-time curve AUC0-last iv): 6.84 µM·h
- clearance ([1]; iv, 1 mg/kg, iv 1.0 mg/kg): 4.5 mL/min/kg
- Vd ([1]; iv, 1 mg/kg, iv 1.0 mg/kg): 2.78 L/kg
- EC50 (S1P1): 3.84 nM
- Emax (S1P1): 101%
Structure (SMILES): CC(=NOCc1ccc(OC(C)C)c(C(F)(F)F)c1)c1ccc2c(c1)CCC2N1CC(C(=O)O)C1 (single isomer, unassigned) [Compound 32A]

- clearance [1, 2]: 3.68 mL/min/kg
- Vd [1, 2]: 2.24 L/kg
- bioavailability ([1]; iv 1.0, po 2.0 mg/kg): 59.4%
- Cmax ([1]; iv 1.0, po 2.0 mg/kg): 615 nM
- AUC(0-t) [1, 3]: 9.52 µM·h
- EC50 (S1P1): 8.62 nM
- Emax (S1P1): 103%
Structure (SMILES): C/C(=N\OCc1ccc(OCC(C)C)c(C(F)(F)F)c1)c1ccc2c(c1)CCC2N1CC(C(=O)O)C1 (stereo not drawn) [Compound 29]
